Reference: the supplement of paper PMC10307832

Tests used:
Test in all cases: relative viability (nuclei count vs DMSO), 5 days (fraction); higher = more cells survive
[1] = compound: COCC[n+]1c2c(n(Cc3cnccn3)c1C)C(=O)c1ccccc1C2=O [YM155] + CC(=O)c1c(C)c2cnc(Nc3ccc(N4CCNCC4)cn3)nc2n(C2CCCC2)c1=O [Palbociclib] (partner 0.5 µM)
Method in brief: (§1)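 Relative viability was taken as the ratio of nuclei in treated wells to nuclei in vehicle wells. Lung cancer cell lines in 1536-well plates received compounds by pin tool one day after seeding, either one drug alone or a fixed anchor-drug dose plus five library-drug doses (not always all listed) in √10 steps. Nuclei were counted on 4× images after 5 days of treatment, and values are medians of duplicate plates.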

[2] = compound: COCC[n+]1c2c(n(Cc3cnccn3)c1C)C(=O)c1ccccc1C2=O [YM155] + Cc1nc(Nc2ncc(C(=O)Nc3c(C)cccc3Cl)s2)cc(N2CCN(CCO)CC2)n1 [Dasatinib] (partner 0.075 µM)
Method in brief: as §1

[3] = compound: CC(C)(C)c1cc(NC(=O)Nc2ccc(-c3cn4c(n3)sc3cc(OCCN5CCOCC5)ccc34)cc2)no1 [Quizartinib] + C[C@]1(O)C[C@@H](c2nc(-c3ccc4ccc(-c5ccccc5)nc4c3)c3c(N)nccn32)C1 [Linsitinib] (partner 1 µM)
Method in brief: as §1

[4] = compound: CC(C)(C)c1cc(NC(=O)Nc2ccc(-c3cn4c(n3)sc3cc(OCCN5CCOCC5)ccc34)cc2)no1 [Quizartinib] + CC(C)C[C@H](NC(=O)[C@H](Cc1ccccc1)NC(=O)c1cnccn1)B(O)O [Bortezomib] (partner 0.002 µM)
Method in brief: as §1

| Cell Line | relative viability ([1]; first compound 0.002 µM) | relative viability ([1]; first compound 0.006325 µM) | relative viability ([1]; first compound 0.02 µM) | relative viability ([1]; first compound 0.06325 µM) | relative viability ([2]; first compound 0.002 µM) | relative viability ([2]; first compound 0.006325 µM) | relative viability ([2]; first compound 0.02 µM) | relative viability ([2]; first compound 0.06325 µM) | relative viability ([3]; first compound 0.001 µM) | relative viability ([3]; first compound 0.003162 µM) | relative viability ([3]; first compound 0.01 µM) | relative viability ([3]; first compound 0.03162 µM) | relative viability ([3]; first compound 0.1 µM) | relative viability ([4]; first compound 0.001 µM) | relative viability ([4]; first compound 0.003162 µM) | relative viability ([4]; first compound 0.01 µM) | relative viability ([4]; first compound 0.03162 µM) | relative viability ([4]; first compound 0.1 µM) |
| --- | --- | --- | --- | --- | --- | --- | --- | --- | --- | --- | --- | --- | --- | --- | --- | --- | --- | --- |
| NCI-H2342 | 0.515 | 0.496 | 0.475 | 0.54 | 0.308 | 0.336 | 0.329 | 0.301 | – | – | – | – | – | – | – | – | – | – |
| CAL-12T | 0.45 | 0.582 | 0.489 | 0.433 | 0.255 | 0.615 | 0.602 | 0.393 | 0.744 | 0.771 | 0.976 | 0.882 | 0.986 | 0.809 | 1.23 | 0.93 | 0.924 | 1.24 |
| NCI-H1395 | 0.565 | 0.613 | 0.598 | 0.627 | 0.359 | 0.423 | 0.388 | 0.444 | 1.06 | 1.37 | 0.985 | 1.04 | 1.22 | – | – | – | – | – |
| NCI-H1299 | – | – | – | – | – | – | – | – | 0.952 | 0.95 | 0.987 | 1.02 | 1.01 | – | 0.985 | 1.01 | 1.02 | 1.04 |
| NCI-H1703 | – | – | – | – | – | – | – | – | 0.832 | 0.456 | 0.165 | 0.162 | 0.231 | 0.418 | 0.269 | 0.16 | 0.18 | 0.256 |
| HCC-15 | 0.702 | 0.854 | 0.701 | 0.749 | 0.663 | 0.56 | 0.593 | 0.507 | 0.799 | 0.823 | 0.874 | 0.828 | 0.814 | 0.759 | 0.992 | 0.987 | 0.984 | 0.988 |
| SW 900 | – | 0.586 | 0.579 | 0.608 | 0.443 | 0.523 | 0.845 | 0.666 | – | – | – | – | – | – | – | – | – | – |
| NCI-H661 | 0.405 | 0.401 | 0.418 | 0.327 | 0.742 | 0.802 | 0.925 | 0.749 | 0.564 | 0.544 | 0.433 | 0.58 | 0.737 | 0.747 | 0.903 | 0.684 | 0.791 | 0.878 |
| NCI-H647 | 0.348 | 0.424 | 0.423 | 0.238 | 0.151 | 0.241 | 0.192 | 0.149 | 1.17 | 1.07 | 1.26 | 1.18 | 1.45 | 0.91 | 1.08 | 0.71 | 0.999 | 1.29 |
| H3255 | 0.324 | 0.305 | 0.351 | 0.319 | 0.379 | 0.339 | 0.534 | 0.405 | 0.854 | 0.826 | 1.01 | 0.896 | 1.06 | 0.776 | 0.713 | 0.7 | 0.946 | 0.774 |
